The experiment deals with T1, TPM3-TRKA fusion protein (Homo sapiens, UniProt P04629).
T1 construct: The resulted chimeric proteins always retain the kinase domain of TRK proteins; TPM3 (fusion partner, N-terminal part of tropomyosin alpha-3, P06753); endogenous in cells; host or cells: KM12 colon cancer cells; the other entry of the earlier key: TPM3 (P06753, Tropomyosin alpha-3 chain)
In words: TPM3-TRKA fusion protein levels in KM12 cells (Western blot). Format: cell-based. The following applies: 16 h; TPM3-TRKA degradation in KM12 cells at 10 nM compound, category of percentage degradation; read-out: Degradation (at 10 nM). The gist of the method: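 TPM3-TRKA levels were assessed by Western blot with chemiluminescent detection and band densitometry, after SDS-PAGE of BCA-normalized RIPA lysates. Before lysis, KM12 cells received DMSO, compounds or matched control compounds at concentrations including 0.1, 1, 10 and 100 nM and 0.4–30 nM. Exposures lasted 4 h, 8–16 h or 16 h.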
(In general: In western blotting, separated proteins are transferred to a membrane and probed.)

Bounds are passed on as bounds.

T1 sequence (P04629 with tags, fused parts or gaps): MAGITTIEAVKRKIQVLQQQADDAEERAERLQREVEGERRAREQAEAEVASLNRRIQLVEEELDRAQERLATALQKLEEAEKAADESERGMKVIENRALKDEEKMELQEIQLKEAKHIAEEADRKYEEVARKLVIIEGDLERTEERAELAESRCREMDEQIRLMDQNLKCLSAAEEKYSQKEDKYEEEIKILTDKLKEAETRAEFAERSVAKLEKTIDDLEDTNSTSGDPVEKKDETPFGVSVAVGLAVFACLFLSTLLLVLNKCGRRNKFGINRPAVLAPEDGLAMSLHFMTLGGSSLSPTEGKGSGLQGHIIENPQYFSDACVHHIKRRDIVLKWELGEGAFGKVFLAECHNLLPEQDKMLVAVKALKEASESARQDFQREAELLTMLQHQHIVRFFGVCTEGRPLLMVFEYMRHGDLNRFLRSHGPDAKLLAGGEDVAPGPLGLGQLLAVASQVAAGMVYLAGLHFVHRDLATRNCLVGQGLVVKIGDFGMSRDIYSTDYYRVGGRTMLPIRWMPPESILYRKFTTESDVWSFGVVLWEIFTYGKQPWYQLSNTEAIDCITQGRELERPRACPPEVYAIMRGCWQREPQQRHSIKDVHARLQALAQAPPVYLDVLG

In the case of `O=C1CCC(N2C(=O)c3ccc(NCCCCCCCC(=O)N4CCN(c5cccc(-c6cnc7ccc(N8CCC[C@@H]8c8cccc(F)c8)nn67)n5)CC4)cc3C2=O)C(=O)N1` (stereo partly drawn) [TR-118, 2-(2,6-Dioxopiperidin-3-yl)-5-((8-(4-(6-(6-((R)-2-(3-fluorophenyl)pyrrolidin-1-yl)imidazo[1,2-b]pyridazin-3-yl)pyridin-2-yl)piperazin-1-yl)-8-oxooctyl)amino) isoindoline-1,3-dione], the percent degradation of TPM3-TRKA protein at 0.01 µM is above 80%.
Then `O=C1CCC(N2C(=O)c3ccc(NCCOCCC(=O)N4CCN(c5cccc(-c6cnc7ccc(N8CCC[C@@H]8c8cccc(F)c8)nn67)n5)CC4)cc3C2=O)C(=O)N1` (stereo partly drawn) [TR-119, 2-(2,6-Dioxopiperidin-3-yl)-5-((2-(3-(4-(6-(6-((R)-2-(3-fluorophenyl)pyrrolidin-1-yl)imidazo[1,2-b]pyridazin-3-yl)pyridin-2-yl)piperazin-1-yl)-3-oxopropoxy)ethyl)amino) isoindoline-1,3-dione], with above 80%; and `O=C1CCC(N2C(=O)c3ccc(NCCOCCOCCOCCOCCC(=O)N4CCN(c5cccc(-c6cnc7ccc(N8CCC[C@@H]8c8cccc(F)c8)nn67)n5)CC4)cc3C2=O)C(=O)N1` (stereo partly drawn) [TR-120, 2-(2,6-Dioxopiperidin-3-yl)-5-((15-(4-(6-(6-((R)-2-(3-fluorophenyl)pyrrolidin-1-yl)imidazo[1,2-6]pyridazin-3-yl)pyridin-2-yl)piperazin-1-yl)-15-oxo-3,6,9,12-tetraoxapentadecyl)amino) isoindoline-1,3-dione], with above 80%.
As to `O=C1CCC(N2C(=O)c3ccc(NCCC(=O)N4CCN(c5cccc(-c6cnc7ccc(N8CCC[C@@H]8c8cccc(F)c8)nn67)n5)CC4)cc3C2=O)C(=O)N1` (stereo partly drawn) [TR-121, 2-(2,6-Dioxopiperidin-3-yl)-5-((3-(4-(6-(6-((R)-2-(3-fluorophenyl)pyrrolidin-1-yl)imidazo[1,2-b]pyridazin-3-yl)pyridin-2-yl)piperazin-1-yl)-3-oxopropyl)amino) isoindoline-1,3-dione], the percent degradation of TPM3-TRKA protein at 0.01 µM is above 80%.
Then `O=C1CCC(N2C(=O)c3ccc(NCCCCCC(=O)N4CCN(c5cccc(-c6cnc7ccc(N8CCC[C@@H]8c8cccc(F)c8)nn67)n5)CC4)cc3C2=O)C(=O)N1` (stereo partly drawn) [TR-122, 2-(2,6-Dioxopiperidin-3-yl)-5-((6-(4-(6-(6-((R)-2-(3-fluorophenyl)pyrrolidin-1-yl)imidazo[1,2-b]pyridazin-3-yl)pyridin-2-yl)piperazin-1-yl)-6-oxohexyl)amino) isoindoline-1,3-dione], with above 80%.
For the compound `O=C(CN1CCN(c2cccc(-c3cnc4ccc(N5CCC[C@@H]5c5cccc(F)c5)nn34)n2)CC1)NCCCCNc1ccc2c(c1)C(=O)N(C1CCC(=O)NC1=O)C2=O` (stereo partly drawn) [TR-124, N-(4-((2-(2,6-dioxopiperidin-3-yl)-1,3-dioxoisoindolin-S-yl)amino)butyl)-2-(4-(6-(6-((R)-2-(3-fluorophenyl)pyrrolidin-1-yl)imidazo[1,2-b]pyridazin-3-yl)pyridin-2-yl)piperazin-1-yl)acetamide], the percent degradation of TPM3-TRKA protein at 0.01 µM was above 80%.
Then `O=C(CN1CCN(c2cccc(-c3cnc4ccc(N5CCC[C@@H]5c5cccc(F)c5)nn34)n2)CC1)NCCOCCOCCOCCOCCNc1ccc2c(c1)C(=O)N(C1CCC(=O)NC1=O)C2=O` (stereo partly drawn) [TR-125, N-(14-((2-(2,6-dioxopiperidin-3-yl)-1,3-dioxoisoindolin-5-yl)amino)-3,6,9,12-tetraoxatetradecyl)-2-(4-(6-(6-((R)-2-(3-fluorophenyl)pyrrolidin-1-yl)imidazo[1,2-b]pyridazin-3-yl)pyridin-2-yl)piperazin-1-yl)acetamide], with above 80%; and `O=C(CN1CCN(c2cccc(-c3cnc4ccc(N5CCC[C@@H]5c5cccc(F)c5)nn34)n2)CC1)NCCCNc1ccc2c(c1)C(=O)N(C1CCC(=O)NC1=O)C2=O` (stereo partly drawn) [TR-127, N-(3-((2-(2,6-dioxopiperidin-3-yl)-1,3-dioxoisoindolin-S-yl)amino)propyl)-2-(4-(6-(6-((R)-2-(3-fluorophenyl)pyrrolidin-1-yl)imidazo[1,2-b]pyridazin-3-yl)pyridin-2-yl)piperazin-1-yl)acetamide], with above 80%; and `O=C(CN1CCN(c2cccc(-c3cnc4ccc(N5CCC[C@@H]5c5cccc(F)c5)nn34)n2)CC1)NCCCCCCNc1ccc2c(c1)C(=O)N(C1CCC(=O)NC1=O)C2=O` (stereo partly drawn) [TR-128, N-(6-((2-(2,6-dioxopiperidin-3-yl)-1,3-dioxoisoindolin-5-yl)amino)hexyl)-2-(4-(6-(6-((R)-2-(3-fluorophenyl)pyrrolidin-1-yl)imidazo[1,2-b]pyridazin-3-yl)pyridin-2-yl)piperazin-1-yl)acetamide], with above 80%.
Then `O=C(CN1CCN(c2cccc(-c3cnc4ccc(N5CCC[C@@H]5c5cccc(F)c5)nn34)n2)CC1)NCCOCCOCCOCCNc1ccc2c(c1)C(=O)N(C1CCC(=O)NC1=O)C2=O` (stereo partly drawn) [TR-129, N-(2-(2-(2-(2-((2-(2,6-dioxopiperidin-3-yl)-1,3-dioxoisoindolin-5-yl)amino)ethoxy)ethoxy)ethoxy)ethyl)-2-(4-(6-(6-((R)-2-(3-fluorophenyl)pyrrolidin-1-yl)imidazo[1,2-b]pyridazin-3-yl)pyridin-2-yl)piperazin-1-yl)acetamide], with above 80%; and `O=C(CN1CCN(c2cccc(-c3cnc4ccc(N5CCC[C@@H]5c5cccc(F)c5)nn34)n2)CC1)NCCCCCNc1ccc2c(c1)C(=O)N(C1CCC(=O)NC1=O)C2=O` (stereo partly drawn) [TR-131, N-(5-((2-(2,6-dioxopiperidin-3-yl)-1,3-dioxoisoindolin-5-yl)amino)pentyl)-2-(4-(6-(6-((R)-2-(3-fluorophenyl)pyrrolidin-1-yl)imidazo[1,2-b]pyridazin-3-yl)pyridin-2-yl)piperazin-1-yl)acetamide], with above 80%.
Then `O=C(CN1CCN(c2cccc(-c3cnc4ccc(N5CCC[C@@H]5c5cccc(F)c5)nn34)n2)CC1)NCCOCCOCCOCCOCCOCCNc1ccc2c(c1)C(=O)N(C1CCC(=O)NC1=O)C2=O` (stereo partly drawn) [TR-132, N-(17-((2-(2,6-dioxopiperidin-3-yl)-1,3-dioxoisoindolin-5-yl)amino)-3,6,9,12,15-pentaoxaheptadecyl)-2-(4-(6-(6-((R)-2-(3-fluorophenyl)pyrrolidin-1-yl)imidazo[1,2-b]pyridazin-3-yl)pyridin-2-yl)piperazin-1-yl)acetamide], with above 80%; and `O=C(CN1CCN(c2cccc(-c3cnc4ccc(N5CCC[C@@H]5c5cccc(F)c5)nn34)n2)CC1)NCCOCCOCCNc1ccc2c(c1)C(=O)N(C1CCC(=O)NC1=O)C2=O` (stereo partly drawn) [TR-134, N-(2-(2-(2-((2-(2,6-dioxopiperidin-3-yl)-1,3-dioxoisoindolin-5-yl)amino)ethoxy)ethoxy)ethyl)-2-(4-(6-(6-((R)-2-(3-fluorophenyl)pyrrolidin-1-yl)imidazo[1,2-b]pyridazin-3-yl)pyridin-2-yl)piperazin-1-yl)acetamide], with above 80%; and `O=C1CCC(N2C(=O)c3ccc(NCCOCCOCCOCCOCCOCCC(=O)N4CCN(c5ccc(C(=O)Nc6n[nH]c7ccc(Cc8cc(F)cc(F)c8)cc67)c(NC6CCOCC6)c5)CC4)cc3C2=O)C(=O)N1` (stereo not drawn) [TR-137, N-(5-(3,5-Difluorobenzyl)-1H-indazol-3-yl)-4-(4-(1-((2-(2,6-dioxopiperidin-3-yl)-1,3-dioxoisoindolin-5-yl)amino)-3,6,9, 12, 15-pentaoxaoctadecan-18-oyl)piperazin-1-yl)-2-((tetrahydro-2H-pyran-4-yl)amino)benzamide], with above 80%.
As for `O=C1CCC(N2C(=O)c3ccc(NCCOCCOCCC(=O)N4CCN(c5ccc(C(=O)Nc6n[nH]c7ccc(Cc8cc(F)cc(F)c8)cc67)c(NC6CCOCC6)c5)CC4)cc3C2=O)C(=O)N1` (stereo not drawn) [TR-141, N-(5-(3,5-Difluorobenzyl)-1H-indazol-3-yl)-4-(4-(3-(2-(2-((2-(2,6-dioxopiperidin-3-yl)-1,3-dioxoisoindolin-5-yl)amino)ethoxy)ethoxy)propanoyl)piperazin-1-yl)-2-((tetrahydro-2H-pyran-4-yl)amino)benzamide], the percent degradation of TPM3-TRKA protein at 0.01 µM was above 80%.
Then `O=C1CCC(N2C(=O)c3ccc(NCCCCC(=O)N4CCN(c5ccc(C(=O)Nc6n[nH]c7ccc(Cc8cc(F)cc(F)c8)cc67)c(NC6CCOCC6)c5)CC4)cc3C2=O)C(=O)N1` (stereo not drawn) [TR-142, N-(5-(3,5-Difluorobenzyl)-1H-indazol-3-yl)-4-(4-(5-((2-(2,6-dioxopiperidin-3-yl)-1,3-dioxoisoindolin-5-yl)amino)pentanoyl)piperazin-1-yl)-2-((tetrahydro-2H-pyran-4-yl)amino)benzamide], with above 80%.
`O=C1CCC(N2C(=O)c3ccc(NCCOCCC(=O)N4CCN(c5ccc(C(=O)Nc6n[nH]c7ccc(Cc8cc(F)cc(F)c8)cc67)c(NC6CCOCC6)c5)CC4)cc3C2=O)C(=O)N1` (stereo not drawn) [TR-143]: the percent degradation of TPM3-TRKA protein at 0.01 µM was above 80%.
Then `O=C1CCC(N2C(=O)c3ccc(NCC(=O)N4CCN(c5ccc(C(=O)Nc6n[nH]c7ccc(Cc8cc(F)cc(F)c8)cc67)c(NC6CCOCC6)c5)CC4)cc3C2=O)C(=O)N1` (stereo not drawn) [TR-144, N-(5˜ (3,5-Difluorobenzyl)-1H-indazol-3-yl)-4-(4-((2˜ (2,6-dioxopiperidin-3-yl)-1,3-dioxoisoindolin-5-yl)glycyl)piperazin-1-yl)-2-((tetrahydro-2H-pyran-4-yl)amino)benzamide], with above 80%.

The values are drawn from patent publication US12410171B2, “Tropomyosin receptor kinase (TRK) degradation compounds and methods of use” (Cullgen (Shanghai), Inc., priority 2020, dated 2025).
